Assay results from patent publication US10266497B2 (ABIDE THERAPEUTICS, INC., priority 2017, dated 2019).

Assays:
MAGL [1] = molecular target: T1, MAGL (Mus musculus, UniProt O35678); assay: In vitro competitive activity-based protein profiling, MAGL, mouse; conditions: read-out: MAGL % inh. 1 μM (mouse)
T1 sequence (O35678 1-303): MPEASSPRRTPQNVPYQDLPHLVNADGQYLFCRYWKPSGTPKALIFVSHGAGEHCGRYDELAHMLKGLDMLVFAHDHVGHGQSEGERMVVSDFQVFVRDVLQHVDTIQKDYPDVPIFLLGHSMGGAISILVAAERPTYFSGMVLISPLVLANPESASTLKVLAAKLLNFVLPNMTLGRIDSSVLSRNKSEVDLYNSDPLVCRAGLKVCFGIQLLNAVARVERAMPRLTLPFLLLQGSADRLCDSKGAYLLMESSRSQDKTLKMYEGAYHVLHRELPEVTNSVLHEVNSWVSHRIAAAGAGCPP

MAGL [2] = molecular target: T2, MAGL (Homo sapiens, UniProt Q99685); assay: In vitro competitive activity-based protein profiling, MAGL, human; conditions: for inhibition at 1 µM: read-out: MAGL % inh. 1 μM (human)
T2 sequence (Q99685 1-303): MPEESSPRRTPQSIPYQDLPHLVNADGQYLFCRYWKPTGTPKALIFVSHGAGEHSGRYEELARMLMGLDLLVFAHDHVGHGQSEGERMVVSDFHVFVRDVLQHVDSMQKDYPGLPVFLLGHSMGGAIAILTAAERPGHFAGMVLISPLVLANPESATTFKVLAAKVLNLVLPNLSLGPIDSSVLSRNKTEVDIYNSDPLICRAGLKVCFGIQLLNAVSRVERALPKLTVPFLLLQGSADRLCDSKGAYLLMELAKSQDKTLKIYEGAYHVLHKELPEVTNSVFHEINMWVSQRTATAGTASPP

inhibition at 1 µM (MAGL [1])	inhibition at 1 µM (MAGL [2])	inhibition at 10 µM (MAGL [2]; read-out: MAGL % inh. (human) at 10 uM)	IC50 (MAGL [2])	SMILES
> 75%	> 75%	–	–	C[C@@H]1CN(Cc2ccc(-c3ccccc3)cc2F)CCN1C(=O)n1ccc(C(=O)O)n1 [Example 253, (R)-1-(4-((3-fluoro-[1,1′-biphenyl]-4-yl)methyl)-2-methylpiperazine-1-carbonyl)-1H-pyrazole-3-carboxylic acid]
> 75%	> 75%	–	–	O=C(O)c1ccn(C(=O)N2C[C@H]3C[C@@H](OCc4cccc(-c5ccccc5)c4)C[C@H]3C2)n1 [Example 279, 1-(cis-5-([1,1′-biphenyl]-3-ylmethoxy)octa-hydrocyclopenta[c]pyrrole-2-carbonyl)-1H-pyrazole-3-carboxylic acid]
> 75%	> 75%	–	–	Cc1cn(C(=O)N2C[C@H]3C[C@H](OCc4cccc(C(F)(F)F)c4C)C[C@H]3C2)nc1C(=O)O [Example 306, 4-methyl-1-(trans-5-((2-methyl-3-(trifluoromethyl)benzyl)oxy)octa-hydrocyclopenta[c]pyrrole-2-carbonyl)-1H-pyrazole-3-carboxylic acid]
> 75%	> 75%	–	–	O=C(O)c1ccn(C(=O)N2C[C@H]3C[C@H](Oc4cccc(-c5ccccn5)c4)C[C@H]3C2)n1 [Example 242, 1-(trans-5-(3-(pyridin-2-yl)phenoxy)octa-hydrocyclopenta[c]pyrrole-2-carbonyl)-1H-pyrazole-3-carboxylic acid]
> 75%	> 75%	–	–	COc1cc(-c2ccccc2)ccc1CN1CCN(C(=O)n2ccc(C(=O)O)n2)[C@H](C)C1 [Example 283, (R)-1-(4-((3-methoxy-[1,1′-biphenyl]-4-yl)methyl)-2-methylpiperazine-1-carbonyl)-1H-pyrazole-3-carboxylic acid]
> 75%	> 75%	–	–	Cc1c(CN2CCC3(CCN(C(=O)n4ccc(C(=O)O)n4)CC3)C2)cccc1-c1ccccc1 [Example 322, 1-(2-((2-methyl-[1,1′-biphenyl]-3-yl)methyl)-2,8-diazaspiro[4.5]decane-8-carbonyl)-1H-pyrazole-3-carboxylic acid]
> 75%	> 75%	–	–	Cc1cc(O[C@H]2C[C@@H]3CN(C(=O)n4ccc(C(=O)O)n4)C[C@@H]3C2)ccc1C(F)(F)F [Example 254, 1-(trans-5-(3-methyl-4-(trifluoromethyl)phenoxy)octahydro-cyclopenta[c]pyrrole-2-carbonyl)-1H-pyrazole-3-carboxylic acid]
> 75%	> 75%	–	–	O=C(O)c1ccn(C(=O)N2CCN(Cc3cc(F)cc(Oc4cccc(Cl)c4)c3)CC2)n1 [Example 321, 1-(4-(3-(3-chlorophenoxy)-5-fluorobenzyl)piper-azine-1-carbonyl)-1H-pyrazole-3-carboxylic acid]
25 to 50%	0 to 25%	–	–	O=C(O)c1ccn(C(=O)N2CCC3(CCN(Cc4ccc(Cl)c(N5CCOCC5)c4)C3)CC2)n1 [Example 372, 1-(2-(4-chloro-3-morpholinobenzyl)-2,8-diazaspiro[4.5]decane-8-carbonyl)-1H-pyrazole-3-carboxylic acid]
> 75%	> 75%	–	–	O=C(O)c1ccn(C(=O)N2CCC(OCc3cc(Cl)ccc3C(F)(F)F)CC2)n1 [Example 277, 1-(4-((5-chloro-2-(trifluoromethyl)benzyl)oxy)piper-idine-1-carbonyl)-1H-pyrazole-3-carboxylic acid]
0 to 25%	–	> 75%	–	O=C(O)c1ccn(C(=O)N2CCC3(CCN(Cc4cccc(-c5cncnc5)c4)C3)CC2)n1 [Example 302, 1-(2-(3-(pyrimidin-5-yl)benzyl)-2,8-diazaspiro[4.5]decane-8-carbonyl)-1H-pyrazole-3-carboxylic acid]
> 75%	> 75%	–	–	O=C(O)c1ccn(C(=O)N2CCN(Cc3cc(F)cc(Oc4ccccc4Cl)c3)CC2)n1 [Example 319, 1-(4-(3-(2-chlorophenoxy)-5-fluorobenzyl)piper-azine-1-carbonyl)-1H-pyrazole-3-carboxylic acid]
> 75%	> 75%	–	–	CC(C)(O)COc1cccc(CN2CCN(C(=O)n3ccc(C(N)=O)n3)CC2)c1Cl [Example 37, 1-(4-(2-Chloro-3-(2-hydroxy-2-methylpropoxy)benzyl)piperazine-1-carbonyl)-1H-pyrazole-3-carboxamide]
> 75%	> 75%	–	–	Cc1cn(C(=O)N2CCC3(CCN(Cc4cc(Cl)cc(Cl)c4)C3)CC2)nc1C(=O)O [Example 316, 1-(2-(3,5-dichlorobenzyl)-2,8-diazaspiro[4.5]decane-8-carbonyl)-4-methyl-1H-pyrazole-3-carboxylic acid]
> 75%	> 75%	–	–	O=C(O)c1ccn(C(=O)N2CCC3(CCN(Cc4cc(Cl)ccc4N4CCC4)C3)CC2)n1 [Example 317, 1-(2-(2-(azetidin-1-yl)-5-chlorobenzyl)-2,8-diazaspiro[4.5]decane-8-carbonyl)-1H-pyrazole-3-carboxylic acid]
0 to 25%	50 to 75%	–	–	COc1ccc(Cl)cc1CN1CCC2(CCN(C(=O)n3ccc(C(=O)O)n3)CC2)C1 [Example 282, 1-(2-(5-chloro-2-methoxybenzyl)-2,8-diazaspiro[4.5]decane-8-carbonyl)-1H-pyrazole-3-carboxylic acid]
> 75%	> 75%	–	–	O=C(O)c1nn(C(=O)N2CCN(Cc3cccc(-c4cncnc4)c3)CC2)cc1Cl [Example 270, 4-chloro-1-(4-(3-(pyrimidin-5-yl)benzyl)piperazine-1-carbonyl)-1H-pyrazole-3-carboxylic acid]
> 75%	> 75%	–	–	C[C@@H]1CN(Cc2ccc(C(F)(F)F)cc2N2CCCC2)CCN1C(=O)n1ccc(C(N)=O)n1 [Example 325, (R)-1-(2-methyl-4-(2-(pyrrolidin-1-yl)-4-(trifluoromethyl)benzyl)piperazine-1-carbonyl)-1H-pyrazole-3-carboxamide]
> 75%	> 75%	–	100 to 1000 nM	Cc1cc(-c2ccccc2)ccc1CN1CCN(C(=O)n2ccc(C(=O)O)n2)[C@@H](C)C1 [Example 246, (S)-1-(2-methyl-4-((3-methyl-[1,1′-biphenyl]-4-yl)methyl)piperazine-1-carbonyl)-1H-pyrazole-3-carboxylic acid]
> 75%	> 75%	–	–	Cc1cn(C(=O)N2C[C@H]3C[C@H](Oc4cccc(-c5ccccc5)c4)C[C@H]3C2)nc1C(=O)O [Example 280, 1-(trans-5-([1,1′-biphenyl]-3-yloxy)octahydro-cyclopenta[c]pyrrole-2-carbonyl)-4-methyl-1H-pyrazole-3-carboxylic acid]
> 75%	> 75%	–	–	NC(=O)c1ccn(C(=O)N2CCN(Cc3cccc(C4(C(=O)O)CCOCC4)c3)CC2)n1 [Example 455, 4-(3-((4-(3-carbamoyl-1H-pyrazole-1-carbonyl)piperazin-1-yl)methyl)phenyl) tetrahydro-2H-pyran-4-carboxylic acid]
